How the values were obtained:
human FPR1 = molecular target: T1, human FPR1 (Homo sapiens, UniProt P21462); experiment: FPR1 cyclic adenosine monophosphate (cAMP) assay; format: cell-based; conditions: CHO cells overexpressing human FPR1; forskolin 10 μM; inhibition of cAMP production; HTRF; read-out: hFPR1 cAMP2 EC50
T1 sequence (P21462 1-350): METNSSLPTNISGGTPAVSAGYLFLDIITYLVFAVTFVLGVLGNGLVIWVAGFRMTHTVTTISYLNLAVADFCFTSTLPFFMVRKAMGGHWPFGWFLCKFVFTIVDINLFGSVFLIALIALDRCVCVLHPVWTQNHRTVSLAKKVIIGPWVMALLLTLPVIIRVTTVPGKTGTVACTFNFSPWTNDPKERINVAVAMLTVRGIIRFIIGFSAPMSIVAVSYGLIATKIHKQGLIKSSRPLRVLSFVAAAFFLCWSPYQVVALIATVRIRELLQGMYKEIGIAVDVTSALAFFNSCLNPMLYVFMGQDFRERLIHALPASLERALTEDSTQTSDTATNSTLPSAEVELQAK
Excerpt: (§1) N-formyl peptide receptors (FPRs) are a family of chemo attractant receptors that facilitate leukocyte response during inflammation. FPRs belong to the seven-transmembrane G protein-coupled receptor superfamily and are linked to inhibitory G-proteins (Gi). Three family members (FPR1, FPR2 and FPR3) have been identified in humans and are predominantly found in myeloid cells with varied distribution and have also been reported in multiple organs and tissues. After agonist binding, the FPRs activate a multitude of physiological pathways, such as intra cellular signaling transduction, Ca^2+ mobilization and transcription. The family interacts with a diverse set of ligands that includes proteins, polypeptides and fatty acid metabolites which activate both pro-inflammatory and pro-resolution downstream responses. FPR2 and FPR1 Cyclic Adenosine Monophosphate (cAMP) Assays were used to measure the in vitro activity of the compounds disclosed in this application.
(§2) FPR2 and FPR1 Cyclic Adenosine Monophosphate (cAMP) Assays. A mixture of forskolin (5 μM final for FPR2 or 10 μM final for FPR1) and IBMX (200 μM final) were added to 384-well Proxiplates (Perkin-Elmer) pre-dotted with test compounds in DMSO (1% final) at final concentrations in the range of 0.020 nM to 100 μM. Chinese Hamster Ovary cells (CHO) overexpressing human FPR1 or human FPR2 receptors were cultured in F-12 (Ham's) medium supplemented with 10% qualified FBS, 250 μg/mL zeocin and 300 μg/mL hygromycin (Life Technologies). Reactions were initiated by adding 2,000 human FPR2 cells per well or 4,000 human FPR1 cells per well in Dulbecco's PBS (with calcium and magnesium) (Life Technologies) supplemented with 0.1% BSA (Perkin-Elmer). The reaction mixtures were incubated for 30 min at rt. The level of intracellular cAMP was determined using the HTRF HiRange cAMP assay reagent kit (Cisbio) according to manufacturer's instruction. Solutions of cryptate conjugated anti-cAMP and d2 flurorophore-labeled cAMP were made in a supplied lysis buffer separately. Upon completion of the reaction, the cells were lysed with equal volume of the d2-cAMP solution and anti-cAMP solution. […] The potency and activity of a compound to inhibit cAMP production was then determined by fitting to a 4-parametric logistic equation from a plot of cAMP level versus compound concentrations.

human FPR2 = molecular target: T2, human FPR2 (Homo sapiens, UniProt P25090); experiment: FPR2 cyclic adenosine monophosphate (cAMP) assay; format: cell-based; conditions: CHO cells overexpressing human FPR2; forskolin 5 μM; inhibition of cAMP production; HTRF; read-out: hFPR2 cAMP2 EC50
T2 sequence (P25090 1-351): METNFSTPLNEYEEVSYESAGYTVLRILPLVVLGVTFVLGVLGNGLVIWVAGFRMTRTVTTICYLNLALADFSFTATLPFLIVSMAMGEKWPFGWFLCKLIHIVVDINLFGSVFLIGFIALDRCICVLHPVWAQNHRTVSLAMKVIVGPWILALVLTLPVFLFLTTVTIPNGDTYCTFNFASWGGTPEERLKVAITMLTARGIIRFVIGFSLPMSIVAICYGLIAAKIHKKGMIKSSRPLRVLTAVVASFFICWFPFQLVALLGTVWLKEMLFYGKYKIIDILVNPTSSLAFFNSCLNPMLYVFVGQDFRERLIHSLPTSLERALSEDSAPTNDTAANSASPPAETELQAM
Excerpt: as §1, §2

SMILES: COc1cc(F)c(-c2c(NC(=O)c3ccc(OC(F)(F)F)cc3)c(=O)n(-c3ccccc3)n2C)c(F)c1 [Example 4, N-[5-(2,6-difluoro-4-methoxyphenyl)-1-methyl-3-oxo-2-phenyl-2,3-dihydro-1H-pyrazol-4-yl]-4-(trifluoromethoxy)benzamide]
- EC50 (human FPR1): 1.3 µM
- EC50 (human FPR2): 0.008 µM

SMILES: COc1cc(F)c(-c2c(NC(=O)c3ccc(C(F)(F)F)cc3)c(=O)n(-c3ccccc3)n2C)c(F)c1 [Example 5, N-[5-(2,6-difluoro-4-methoxyphenyl)-1-methyl-3-oxo-2-phenyl-2,3-dihydro-1H-pyrazol-4-yl]-4-(trifluoromethyl)benzamide]
- EC50 (human FPR1): 2.9 µM
- EC50 (human FPR2): 0.01 µM

SMILES: COc1ccc(-c2c(NC(=O)c3ccc(OC(F)F)cc3)c(=O)n(-c3ccccc3)n2C)cc1 [Example 7, 4-(difluoromethoxy)-N-[5-(4-methoxyphenyl)-1-methyl-3-oxo-2-phenyl-2,3-dihydro-1H-pyrazol-4-yl]benzamide]
- EC50 (human FPR1): 0.3 µM
- EC50 (human FPR2): 0.01 µM

SMILES: COc1cc(F)c(-c2c(NC(=O)c3ccc(Cl)cc3)c(=O)n(-c3ccccc3)n2C)c(F)c1 [Example 9, 4-chloro-N-[5-(2,6-difluoro-4-methoxyphenyl)-1-methyl-3-oxo-2-phenyl-2,3-dihydro-1H-pyrazol-4-yl]benzamide]
- EC50 (human FPR1): > 10 µM
- EC50 (human FPR2): 0.011 µM

SMILES: COc1cc(F)c(-c2c(NC(=O)c3ccc(OC(F)(F)F)cc3)c(=O)n(-c3ccc(F)cc3)n2C)c(F)c1 [Example 10, N-[5-(2,6-difluoro-4-methoxyphenyl)-2-(4-fluorophenyl)-1-methyl-3-oxo-2,3-dihydro-1H-pyrazol-4-yl]-4-(trifluoromethoxy)benzamide]
- EC50 (human FPR1): 0.92 µM
- EC50 (human FPR2): 0.014 µM

SMILES: COc1cc(F)c(-c2c(NC(=O)c3ccc(OC(F)F)cc3)c(=O)n(-c3ccc(F)cc3)n2C)c(F)c1 [Example 12, N-[5-(2,6-difluoro-4-methoxyphenyl)-2-(4-fluorophenyl)-1-methyl-3-oxo-2,3-dihydro-1H-pyrazol-4-yl]-4-(difluoromethoxy)benzamide]
- EC50 (human FPR1): 1.6 µM
- EC50 (human FPR2): 0.017 µM

SMILES: COc1cc(F)c(-c2c(NC(=O)c3ccc(OC(F)F)cc3)c(=O)n(C3CC3)n2C)c(F)c1 [Example 13, N-[2-cyclopropyl-5-(2,6-difluoro-4-methoxyphenyl)-1-methyl-3-oxo-2,3-dihydro-1H-pyrazol-4-yl]-4-(difluoromethoxy)benzamide]
- EC50 (human FPR1): 2.4 µM
- EC50 (human FPR2): 0.022 µM

SMILES: COc1cc(F)c(-c2c(NC(=O)c3ccc(OC(F)F)cc3)c(=O)n(-c3cc(F)ccc3C)n2C)c(F)c1 [Example 14, N-[5-(2,6-difluoro-4-methoxyphenyl)-2-(5-fluoro-2-methylphenyl)-1-methyl-3-oxo-2,3-dihydro-1H-pyrazol-4-yl]-4-(difluoromethoxy)benzamide]
- EC50 (human FPR1): > 10 µM
- EC50 (human FPR2): 0.023 µM

SMILES: COc1cc(F)c(-c2c(NC(=O)c3ccc(Cl)cc3)c(=O)n(-c3ccc(F)cc3)n2C)c(F)c1 [Example 15, 4-chloro-N-[5-(2,6-difluoro-4-methoxyphenyl)-2-(4-fluorophenyl)-1-methyl-3-oxo-2,3-dihydro-1H-pyrazol-4-yl]benzamide]
- EC50 (human FPR1): > 10 µM
- EC50 (human FPR2): 0.03 µM

SMILES: COc1cc(F)c(-c2c(NC(=O)c3ccc(C4CC4)cc3)c(=O)n(-c3ccccc3)n2C)c(F)c1 [Example 16, 4-cyclopropyl-N-[5-(2,6-difluoro-4-methoxyphenyl)-1-methyl-3-oxo-2-phenyl-2,3-dihydro-1H-pyrazol-4-yl]benzamide]
- EC50 (human FPR1): > 10 µM
- EC50 (human FPR2): 0.03 µM

SMILES: COc1cc(F)c(-c2c(NC(=O)c3ccc(C(F)(F)F)cc3)c(=O)n(-c3ccc(F)cc3)n2C)c(F)c1 [Example 17, N-[5-(2,6-difluoro-4-methoxyphenyl)-2-(4-fluorophenyl)-1-methyl-3-oxo-2,3-dihydro-1H-pyrazol-4-yl]-4-(trifluoromethyl)benzamide]
- EC50 (human FPR1): 1.7 µM
- EC50 (human FPR2): 0.051 µM

SMILES: COc1cc(F)c(-c2c(NC(=O)c3ccc(OC(F)F)cc3)c(=O)n(C(C)C)n2C)c(F)c1 [Example 18, N-[5-(2,6-difluoro-4-methoxyphenyl)-1-methyl-3-oxo-2-(propan-2-yl)-2,3-dihydro-1H-pyrazol-4-yl]-4-(difluoromethoxy)benzamide]
- EC50 (human FPR1): 4.1 µM
- EC50 (human FPR2): 0.053 µM

SMILES: CCOC(=O)Cn1c(=O)c(NC(=O)c2ccc(OC(F)F)cc2)c(-c2c(F)cc(OC)cc2F)n1C [Example 21, ethyl 2-[3-(2,6-difluoro-4-methoxyphenyl)-4-[4-(difluoromethoxy)benzamido]-2-methyl-5-oxo-2,5-dihydro-1H-pyrazol-1-yl]acetate]
- EC50 (human FPR1): > 10 µM
- EC50 (human FPR2): 0.14 µM

SMILES: COc1cc(F)c(-c2c(NC(=O)c3ccc(-n4cccn4)cc3)c(=O)n(-c3ccccc3)n2C)c(F)c1 [Example 23, N-[5-(2,6-difluoro-4-methoxyphenyl)-1-methyl-3-oxo-2-phenyl-2,3-dihydro-1H-pyrazol-4-yl]-4-(1H-pyrazol-1-yl)benzamide]
- EC50 (human FPR1): 3 µM
- EC50 (human FPR2): 0.15 µM

SMILES: COc1cc(F)c(-c2c(NC(=O)c3ccc(OC(F)(F)F)cn3)c(=O)n(-c3ccccc3)n2C)c(F)c1 [Example 24, N-[5-(2,6-difluoro-4-methoxyphenyl)-1-methyl-3-oxo-2-phenyl-2,3-dihydro-1H-pyrazol-4-yl]-5-(trifluoromethoxy)pyridine-2-carboxamide]
- EC50 (human FPR1): > 10 µM
- EC50 (human FPR2): 0.22 µM

SMILES: COc1cc(F)c(-c2c(NC(=O)c3ccc(Cl)nc3)c(=O)n(-c3ccccc3)n2C)c(F)c1 [Example 25, 6-chloro-N-[5-(2,6-difluoro-4-methoxyphenyl)-1-methyl-3-oxo-2-phenyl-2,3-dihydro-1H-pyrazol-4-yl]pyridin-3-carboxamide]
- EC50 (human FPR1): > 10 µM
- EC50 (human FPR2): 0.28 µM

SMILES: COc1cc(F)c(-c2c(NC(=O)c3ccc(OC(F)(F)F)cc3)c(=O)n(-c3c(F)cccc3F)n2C)c(F)c1 [Example 26, N-[5-(2,6-difluoro-4-methoxyphenyl)-2-(2,6-difluorophenyl)-1-methyl-3-oxo-2,3-dihydro-1H-pyrazol-4-yl]-4-(trifluoromethoxy)benzamide]
- EC50 (human FPR1): 1.1 µM
- EC50 (human FPR2): 0.009 µM

SMILES: COc1cc(F)c(-c2c(NC(=O)c3ccc(OC(F)F)cc3)c(=O)n(-c3c(F)cccc3F)n2C)c(F)c1 [Example 27, N-[5-(2,6-difluoro-4-methoxyphenyl)-2-(2,6-difluorophenyl)-1-methyl-3-oxo-2,3-dihydro-1H-pyrazol-4-yl]-4-(difluoromethoxy)benzamide]
- EC50 (human FPR1): > 10 µM
- EC50 (human FPR2): 0.01 µM

SMILES: COc1cc(F)c(-c2c(NC(=O)c3ccc(OC(F)(F)F)cc3)c(=O)n(-c3ccccc3F)n2C)c(F)c1 [Example 28, N-[5-(2,6-difluoro-4-methoxyphenyl)-2-(2-fluorophenyl)-1-methyl-3-oxo-2,3-dihydro-1H-pyrazol-4-yl]-4-(trifluoromethoxy)benzamide]
- EC50 (human FPR1): 2.5 µM
- EC50 (human FPR2): 0.01 µM

SMILES: COc1cc(F)c(-c2c(NC(=O)c3ccc(Cl)cc3)c(=O)n(-c3ccccc3F)n2C)c(F)c1 [Example 30, 4-chloro-4-N-[5-(2,6-difluoro-4-methoxyphenyl)-2-(2-fluorophenyl)-1-methyl-3-oxo-2,3-dihydro-1H-pyrazol-4-yl]benzamide]
- EC50 (human FPR1): > 10 µM
- EC50 (human FPR2): 0.018 µM
